Results: PubChem BioAssay AID1259407 (Chemical Carcinogenesis Research Information System (CCRIS), 2018)
Active and inactive are the calls of the source. The rule behind the calls is not given here.

System: CCRIS mutagenicity, Ames/micronucleus/aberration tests
Experiment: CCRIS mutagenicity studies
[1] = Test System: AMES SALMONELLA TYPHIMURIUM, Strain/Indicator: TA100, Metabolic Activation: NONE, Method: PREINCUBATION
[2] = Test System: AMES SALMONELLA TYPHIMURIUM, Strain/Indicator: TA100, Metabolic Activation: NONE, Method: STANDARD PLATE
[3] = Test System: AMES SALMONELLA TYPHIMURIUM, Strain/Indicator: TA100, Metabolic Activation: RAT, LIVER, S-9, AROCLOR 1254, Method: STANDARD PLATE
[4] = Test System: AMES SALMONELLA TYPHIMURIUM, Strain/Indicator: TA1535, Metabolic Activation: RAT, LIVER, S-9, AROCLOR 1254, Method: STANDARD PLATE
[5] = Test System: AMES SALMONELLA TYPHIMURIUM, Strain/Indicator: TA98, Metabolic Activation: NONE, Method: STANDARD PLATE

With `O=P(OCC(Br)CBr)(OCC(Br)CBr)OCC(Br)CBr` (configuration not stated) the mutagenic call [1] was “inactive; negative”, the mutagenic call [2] was “inactive; negative” and the mutagenic call (Test System: AMES SALMONELLA TYPHIMURIUM, Strain/Indicator: TA100, Metabolic Activation: RAT LIVER S-9, PHENOBARBITAL, Method: PREINCUBATION) was “active; positive”. For the same compound, the mutagenic call (Test System: AMES SALMONELLA TYPHIMURIUM, Strain/Indicator: TA100, Metabolic Activation: RAT, LIVER, HEPATOCYTES, PHENOBARBITAL, Method: PREINCUBATION) was “active; positive”, the mutagenic call (Test System: AMES SALMONELLA TYPHIMURIUM, Strain/Indicator: TA100, Metabolic Activation: RAT, LIVER, HEPATOCYTES, Method: PREINCUBATION) was “active; positive” and the mutagenic call (Test System: AMES SALMONELLA TYPHIMURIUM, Strain/Indicator: TA100, Metabolic Activation: RAT, LIVER, MICROSOMES, AROCLOR 1254, Method: STANDARD PLATE) was “active; positive”. For the same compound, the mutagenic call (Test System: AMES SALMONELLA TYPHIMURIUM, Strain/Indicator: TA100, Metabolic Activation: RAT, LIVER, MICROSOMES, PHENOBARBITAL, Method: PREINCUBATION) was “active; positive”, the mutagenic call (Test System: AMES SALMONELLA TYPHIMURIUM, Strain/Indicator: TA100, Metabolic Activation: RAT, LIVER, MICROSOMES, Method: PREINCUBATION) was “active; positive” and the mutagenic call [3] was “active; positive”. For the same compound, the mutagenic call (Test System: AMES SALMONELLA TYPHIMURIUM, Strain/Indicator: TA104, Metabolic Activation: RAT LIVER S-9, PHENOBARBITAL, Method: PREINCUBATION) was “active; positive”, the mutagenic call [4] was “active; positive” and the mutagenic call (Test System: CHINESE HAMSTER V-79, Strain/Indicator: V-79/6-THIOGUANINE, Metabolic Activation: RAT, LIVER, MICROSOMES, PHENOBARBITAL) was “active; positive”. For the same compound, the mutagenic call (Test System: E. COLI, Strain/Indicator: WP2 UVRA, Metabolic Activation: MOUSE, LIVER, S-9, Method: STANDARD PLATE) was “inactive; negative”, the mutagenic call (Test System: E. COLI, Strain/Indicator: WP2 UVRA, Metabolic Activation: NONE, Method: STANDARD PLATE) was “inactive; negative” and the mutagenic call (Test System: E. COLI, Strain/Indicator: WP2 UVRA, Metabolic Activation: RAT, LIVER, S-9, Method: STANDARD PLATE) was “inactive; negative”. The mutagenic call (Test System: UDS RAT HEPATOCYTES, Strain/Indicator: THY INCORP, Metabolic Activation: NONE) was “active; positive”, the mutagenic call (Test System: UDS RODENT HEPATOCYTES, Strain/Indicator: THY INCORP (NON-S-PHASE), Metabolic Activation: RAT, LIVER, HEPATOCYTES, PHENOBARBITAL, Method: LIQUID SCINTILLATION COUNTING) was “active; positive” and the mutagenic call (Test System: UDS RODENT HEPATOCYTES, Strain/Indicator: THY INCORP (NON-S-PHASE), Metabolic Activation: RAT, LIVER, HEPATOCYTES, Method: LIQUID SCINTILLATION COUNTING) was “active; positive”.

In the case of `ONc1cccc(-c2ccccc2)c1`, the mutagenic call [5] is reported as “inactive; negative” and the mutagenic call [2] is reported as “inactive; negative”.

In the case of `CC(=O)C(Cl)Cl`, the mutagenic call [5] is reported as “inactive; negative”, the mutagenic call (Test System: AMES SALMONELLA TYPHIMURIUM, Strain/Indicator: TA98, Metabolic Activation: RAT, LIVER, S-9, AROCLOR 1254, Method: STANDARD PLATE) is reported as “inactive; negative” and the mutagenic call (Test System: AMES SALMONELLA TYPHIMURIUM, Strain/Indicator: TA100, Metabolic Activation: NONE, Method: FLUCTUATION TEST) is reported as “active; positive”. The mutagenic call (Test System: AMES SALMONELLA TYPHIMURIUM, Strain/Indicator: TA100, Metabolic Activation: RAT, LIVER, S-9, AROCLOR 1254, Method: FLUCTUATION TEST) was “inactive; negative”, the mutagenic call [3] was “active; positive” and the mutagenic call (Test System: AMES SALMONELLA TYPHIMURIUM, Strain/Indicator: TA1535, Metabolic Activation: NONE, Method: STANDARD PLATE) was “active; positive”. For the same compound, the mutagenic call [4] was “active; positive”, the mutagenic call (Test System: AMES SALMONELLA TYPHIMURIUM, Strain/Indicator: TA1537, Metabolic Activation: NONE, Method: STANDARD PLATE) was “inactive; negative” and the mutagenic call (Test System: AMES SALMONELLA TYPHIMURIUM, Strain/Indicator: TA1537, Metabolic Activation: RAT, LIVER, S-9, AROCLOR 1254, Method: STANDARD PLATE) was “inactive; negative”.

`O=C(N=c1sn(C(=O)c2cccc([N+](=O)[O-])c2)c2ccc([N+](=O)[O-])cc12)c1cccc([N+](=O)[O-])c1` was tested, and the mutagenic call (Test System: AMES SALMONELLA TYPHIMURIUM, Strain/Indicator: TA100, Metabolic Activation: S-9, Method: STANDARD PLATE) was “active; positive”.

`CCC[CH2][Sn]([CH2]CCC)([O]C(C)=O)[O]C(C)=O` was tested, and the mutagenic call (Test System: AMES SALMONELLA TYPHIMURIUM, Strain/Indicator: TA98, Metabolic Activation: HAMSTER, LIVER, S-9, AROCLOR 1254 (10%), Method: PREINCUBATION) was “inactive; negative”, the mutagenic call (Test System: AMES SALMONELLA TYPHIMURIUM, Strain/Indicator: TA98, Metabolic Activation: NONE, Method: PREINCUBATION) was “inactive; negative” and the mutagenic call (Test System: AMES SALMONELLA TYPHIMURIUM, Strain/Indicator: TA98, Metabolic Activation: RAT, LIVER, S-9, AROCLOR 1254 (10%), Method: PREINCUBATION) was “inactive; negative”. For the same compound, the mutagenic call (Test System: AMES SALMONELLA TYPHIMURIUM, Strain/Indicator: TA100, Metabolic Activation: HAMSTER, LIVER, S-9, AROCLOR 1254 (10%), Method: PREINCUBATION) was “inactive; negative”, the mutagenic call [1] was “inactive; negative” and the mutagenic call (Test System: AMES SALMONELLA TYPHIMURIUM, Strain/Indicator: TA100, Metabolic Activation: RAT, LIVER, S-9, AROCLOR 1254 (10%), Method: PREINCUBATION) was “inactive; negative”. The mutagenic call (Test System: AMES SALMONELLA TYPHIMURIUM, Strain/Indicator: TA1535, Metabolic Activation: HAMSTER, LIVER, S-9, AROCLOR 1254 (10%), Method: PREINCUBATION) was “inactive; negative”, the mutagenic call (Test System: AMES SALMONELLA TYPHIMURIUM, Strain/Indicator: TA1535, Metabolic Activation: NONE, Method: PREINCUBATION) was “inactive; negative” and the mutagenic call (Test System: AMES SALMONELLA TYPHIMURIUM, Strain/Indicator: TA1535, Metabolic Activation: RAT, LIVER, S-9, AROCLOR 1254 (10%), Method: PREINCUBATION) was “inactive; negative”. For the same compound, the mutagenic call (Test System: AMES SALMONELLA TYPHIMURIUM, Strain/Indicator: TA1537, Metabolic Activation: HAMSTER, LIVER, S-9, AROCLOR 1254 (10%), Method: PREINCUBATION) was “inactive; negative”, the mutagenic call (Test System: AMES SALMONELLA TYPHIMURIUM, Strain/Indicator: TA1537, Metabolic Activation: NONE, Method: PREINCUBATION) was “inactive; negative” and the mutagenic call (Test System: AMES SALMONELLA TYPHIMURIUM, Strain/Indicator: TA1537, Metabolic Activation: RAT, LIVER, S-9, AROCLOR 1254 (10%), Method: PREINCUBATION) was “inactive; negative”.
